According to US5780590A, “Antithrombotic azacycloalkylalkanoyl peptides and pseudopeptides” (Rhone-Poulenc Rorer Pharmaceuticals Inc., priority 1996, dated 1998):

How the values were obtained:
[1] = system: ADP-induced platelet aggregation in platelet rich plasma; assay: Inhibition of ADP-Induced ex-vivo Platelet Aggregation; assay type: in vivo, mongrel dogs; settings: dog, dose 5 mg/kg oral
Description: The Platelet Aggregation Assay is based on that described in Blood 66 (4), 946-952 (1985). The Fibrinogen-Binding Assay is essentially that of Ruggeri, Z. M., et al., Proc. Natl. Acad. Sci. USA 83, 5708-5712 (1986) and Plow, E. F., et al., Proc. Natl. Acad. Sci., USA 82, 8057-8061 (1985). The Inhibition of ADP-Induced ex-vivo Platelet Aggregation assay is based on that of Zucker, "Platelet Aggregation Measured by the Photoelectric Method", Methods in Enzymology 169, 117-133 (1989).
Inhibition of ADP-Induced ex-vivo Platelet Aggregation
Control blood samples are obtained 5-10 minutes prior to administration of a test compound in mongrel dogs weighing from 10 to 20 Kg. The compound is administered intragasticly, via aqueous gavage, or orally, via gelatin capsule. […]
The blood samples are centrifuged at 1000 rpm for 10 minutes to obtain platelet rich plasma (PRP). […] Platelet count in the PRP is determined by using a Coulter Counter (Coulter Electronics, Hialeah, Fla.). […] Platelet aggregation is monitored spectrophotometrically utilizing a light transmission aggregometer (Bio/Data Platelet Aggregation Profiler, Model PAP-4, Bio/Data Corp., Horsham, Pa.). For the testing of a compound, the rate of change (slope) of light transmittance and the maximum light transmittance (maximum aggregation) is recorded in duplicate. […]

[2] = Isothermal microcalorimetry of solid state form conversion; assay type: physicochemical; settings: 60° C. (FIG. 8)
Procedure: Isothermal microcalorimetry experiments on hygroscopic and non-hygroscopic crystalline forms of N-[N-[N-(4-piperdin-4-yl)butanoyl)-N-ethylglycyl]-(L)-aspartyl]-(L)-β-cyclohexylalanine amide are performed on a Thermometric® Thermal Activity Monitor (TAM). Solid state conversions of the different crystalline forms are studied by exposing the forms to different humidities or solvent vapors at different temperatures. The saturated salt solutions used to obtain different humidities were: KCl (80% RH), NaCl (75% RH), and NaBr (65% RH). Approximately 100 mg quantities of the forms are weighed into a TAM glass ampule and a microhygrostate containing a saturated salt solution (with excess solid) or an organic solvent is placed inside the ampule. The ampule is sealed, equilibrated to the temperature of the experiment, and lowered into the measuring position in the TAM. An identical system containing washed sea sand, in place of the form subject to testing, is placed on the reference side. Output power ([…]) is measured as a function of time (FIGS. 6-8).

[3] = Moisture sorption isotherms; assay type: physicochemical; settings: 25° C. (FIG. 9)
Procedure: Moisture Sorption Isotherms of hygroscopic and non-hygroscopic crystalline forms of N-[N-[N-(4-piperdin-4-yl)butanoyl)-N-ethylglycyl]-(L)-aspartyl]-(L)-β-cyclohexylalanine amide are obtained on a VTI MB300G moisture balance. The experiments are conducted either by subjecting approximately 15 mg of the subject crystalline form to increasing and decreasing steps of % RH and following the weight gain (at each equilibrium step) as a function of % RH (FIG. 9) or by holding the subject crystalline form at constant humidity and following the weight gain as a function of time.

conversion to non-hygroscopic form at 100% RH [2]	Compound	% Inhibition of ex-vivo Platelet Aggregation After Oral Administration, 24 h [1] [%]	% weight gain vs. % RH [3]
	CCN(CC(=O)N[C@@H](CC(=O)O)C(=O)N[C@@H](CC1CCCCC1)C(N)=O)C(=O)CCCC1CCNCC1 [Example 15]	5	
without the liquification	CCN(CC(=O)N[C@@H](CC(=O)O)C(=O)N[C@@H](CC1CCCCC1)C(N)=O)C(=O)CCCC1CCNCC1 [hygroscopic form]		picks up more water than the non-hygroscopic form as the RH increases
